Reference: US7138546B2, “Compounds and compositions for delivering active agents” (Emisphere Technologies, Inc., priority 2000, dated 2006)

| SMILES | melting point [°C] |
| --- | --- |
| O=C(COc1ccccc1O)Nc1cc(Cl)ccc1O [Compound 1, N-(5-Chloro-2-hydroxyphenyl)-2-(2-hydroxyphenoxy)acetamide] | 203 to 205 |
| CCOCCC(=O)Nc1cc(Cl)ccc1O [Compound 2, N-(5-Choro-2-hydroxyphenyl)-3-ethoxypropanamide] | 154 to 156 |
